± gives the standard deviation of the averaged measurements.
Test system: HepaRG
Test: LDH release cytotoxicity, % of total lysis control; higher = more cytotoxic
Details: 48 h
In short: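 Eight-point half-log series of test chemicals, the highest at 100 µM, were given in duplicate for 48 h to single-lot HepaRG cells on collagen I-coated 96-well plates in serum-free induction medium with 0.5% DMSO. A Tecan Safire read resorufin fluorescence from CytoTox-ONE as a measure of LDH in 50 µL spent medium, with 0.1% Triton X in total lysis wells. Percent cytotoxicity was normalized to on-plate vehicle and total lysis controls and averaged over the duplicates.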

| Structure (SMILES) | LDH release cytotoxicity (0.03162 µM) [%] | LDH release cytotoxicity (0.1 µM) [%] | LDH release cytotoxicity (0.3162278 µM) [%] | LDH release cytotoxicity (1 µM) [%] | LDH release cytotoxicity (3.16228 µM) [%] | LDH release cytotoxicity (10 µM) [%] | LDH release cytotoxicity (31.6228 µM) [%] | LDH release cytotoxicity (100 µM) [%] | LDH release cytotoxicity (0.0322552 µM) [%] | LDH release cytotoxicity (0.102 µM) [%] | LDH release cytotoxicity (0.322552 µM) [%] | LDH release cytotoxicity (1.02 µM) [%] | LDH release cytotoxicity (3.2255232 µM) [%] | LDH release cytotoxicity (10.2 µM) [%] | LDH release cytotoxicity (32.2552 µM) [%] | LDH release cytotoxicity (102 µM) [%] | LDH release cytotoxicity (0.031623 µM) [%] | LDH release cytotoxicity (0.316228 µM) [%] |
| --- | --- | --- | --- | --- | --- | --- | --- | --- | --- | --- | --- | --- | --- | --- | --- | --- | --- | --- |
| Cn1sc(Cl)cc1=O [5-Chloro-2-methyl-3(2H)-isothiazolone] | -0.707 ± 0.6 | -1.2 ± 0.15 | -0.511 ± 0.28 | -1.23 ± 0.16 | -0.949 ± 0.12 | -0.788 ± 0.64 | -1.56 ± 0.12 | -1.76 ± 0.26 | – | – | – | – | – | – | – | – | – | – |
| O=C(Nc1ccc([N+](=O)[O-])cc1Cl)c1cc(Cl)ccc1O [5-Chloro-N-(2-chloro-4-nitrophenyl)-2-hydroxybenzamide] | 1.65 ± 0.17 | -0.562 ± 0.35 | -0.79 ± 0.51 | -0.00174 ± 0.41 | 0.224 ± 0.77 | 1.07 ± 0.19 | 1.7 ± 0.41 | 4.52 ± 0.71 | – | – | – | – | – | – | – | – | – | – |
| O=C1N=CC(F)C(=O)N1 (centres undefined) [5-Fluorouracil] | -1.55 ± 0.12 | -3.9 ± 2.7 | -0.836 ± 0.12 | -1.84 ± 0.21 | -1.66 ± 0.052 | -1.56 ± 0.38 | -1.98 ± 0.46 | 8.44 ± 1.2 | – | – | – | – | – | – | – | – | – | – |
| COc1ccc([N+](=O)[O-])cc1N [5-Nitro-o-anisidine] | 0.0404 ± 0.33 | -1.94 ± 0.095 | -1.36 ± 0.15 | -1.28 ± 0.27 | -1.4 ± 0.22 | -1.25 ± 0.021 | 0.0123 ± 0.15 | 0.941 ± 0.76 | – | – | – | – | – | – | – | – | – | – |
| Cc1ccc([N+](=O)[O-])cc1N [5-Nitro-o-toluidine] | -0.782 ± 1 | -1.02 ± 0.28 | -1.84 ± 0.91 | -1.647 ± 0.013 | -1.55 ± 0.25 | -1.24 ± 0.39 | -0.792 ± 0.78 | -0.343 ± 0.81 | – | – | – | – | – | – | – | – | – | – |
| CC12CCC3C(CCC4CC(=O)CCC43C)C1CCC2O (stereo not drawn) [5alpha-Dihydrotestosterone] | – | – | – | – | – | – | – | – | -1.49 ± 0.51 | -1.05 ± 0.64 | -1.02 ± 0.95 | -0.777 ± 0.65 | -0.0601 ± 0.54 | 0.259 ± 0.88 | 2.27 ± 0.7 | 7.51 ± 0.71 | – | – |
| CC1=NC(=S)NC(=O)C1 [6-Methyl-2-thiouracil] | -1.61 ± 0.11 | -0.548 ± 0.32 | 0.567 ± 0.55 | 0.268 ± 0.56 | 0.0334 ± 0.84 | 0.892 ± 0.68 | 0.733 ± 1.8 | 0.731 ± 1.2 | – | – | – | – | – | – | – | – | – | – |
| Cc1ccc2ncccc2c1 [6-Methylquinoline] | -1.09 ± 0.86 | -1.74 ± 0.29 | -0.691 ± 0.21 | -0.702 ± 0.45 | 1.12 ± 0.71 | 3.62 ± 0.63 | 6.32 ± 0.88 | 12.7 ± 2.4 | – | – | – | – | – | – | – | – | – | – |
| CCCC1=NC(=S)NC(=O)C1 [6-Propyl-2-thiouracil] | -1.25 ± 0.13 | -1.68 ± 0.29 | -2.72 ± 0.31 | -2.49 ± 0.1 | -2.28 ± 0.038 | -1.9 ± 0.03 | -1.25 ± 0.71 | 0.0182 ± 1.5 | – | – | – | – | – | – | – | – | – | – |
| Nc1nc2nc[nH]c2c(=S)[nH]1 [6-Thioguanine] | – | -2.6 ± 0.7 | – | -2.88 ± 0.19 | -2.5 ± 0.32 | -2.64 ± 0.061 | -1.86 ± 0.074 | -0.0388 ± 0.38 | – | – | – | – | – | – | – | – | 1.04 ± 0.63 | -2.87 ± 0.84 |
| OCCC(F)(F)C(F)(F)C(F)(F)C(F)(F)C(F)(F)C(F)(F)F [6:2 Fluorotelomer alcohol] | -0.419 ± 0.26 | -1.392 ± 0.012 | -1.67 ± 0.41 | -2.28 ± 0.32 | -1.52 ± 0.59 | -1.12 ± 1.1 | -1.141 ± 0.005 | -0.148 ± 0.73 | – | – | – | – | – | – | – | – | – | – |
| C=C(C)C(=O)OCCC(F)(F)C(F)(F)C(F)(F)C(F)(F)C(F)(F)C(F)(F)F [6:2 Fluorotelomer methacrylate] | -0.461 ± 0.18 | 0.735 ± 1.2 | 0.518 ± 0.41 | -0.0542 ± 0.29 | 0.38 ± 0.35 | 0.535 ± 0.98 | 0.834 ± 0.34 | 1.55 ± 0.43 | – | – | – | – | – | – | – | – | – | – |
| O=c1c(-c2ccc(O)cc2)coc2cc(O)ccc12 [7,4'-Dihydroxyisoflavone] | -1.77 ± 0.55 | -1.95 ± 0.049 | -1.45 ± 0.29 | -2.21 ± 0.22 | -1.87 ± 0.47 | -0.343 ± 0.097 | -0.854 ± 0.4 | 0.307 ± 0.89 | – | – | – | – | – | – | – | – | – | – |
| Cc1c2ccccc2c(C)c2c1ccc1ccccc12 [7,12-Dimethylbenz(a)anthracene] | -1.46 ± 0.43 | -1.68 ± 0.46 | -1.43 ± 0.069 | -1.27 ± 1.4 | -1.45 ± 0.084 | -1.64 ± 0.1 | 1.86 ± 0.39 | -0.663 ± 0.032 | – | – | – | – | – | – | – | – | – | – |
| CCC12COCN1COC2 [7a-Ethyldihydro-1H,3H,5H-oxazolo(3,4-c)oxazole] | -1.45 ± 0.8 | -1.96 ± 0.61 | -1.68 ± 0.1 | -1.43 ± 1.1 | -1.46 ± 0.12 | -1.34 ± 0.19 | 0.0307 ± 0.78 | 0.471 ± 1.6 | – | – | – | – | – | – | – | – | – | – |
| Oc1cccc2cccnc12 [8-Hydroxyquinoline] | -1.07 ± 0.79 | -1.23 ± 0.047 | -1.16 ± 0.3 | -1.2 ± 0.24 | -1.01 ± 0.27 | -0.111 ± 1.7 | 0.218 ± 1.5 | 2.33 ± 0.36 | – | – | – | – | – | – | – | – | – | – |
| OCCC(F)(F)C(F)(F)C(F)(F)C(F)(F)C(F)(F)C(F)(F)C(F)(F)C(F)(F)F [8:2 Fluorotelomer alcohol] | – | -0.0838 ± 1.2 | – | -2.22 ± 0.18 | -2.23 ± 0.56 | -1.35 ± 0.57 | -1.87 ± 0.66 | 0.405 ± 2.2 | – | – | – | – | – | – | – | – | -0.581 ± 1.7 | -1.41 ± 0.61 |
| Oc1cc2ccccc2c2ccccc12 [9-Phenanthrol] | -1.97 ± 0.66 | -2.29 ± 0.44 | -2.11 ± 0.28 | -2.1 ± 0.98 | -2.21 ± 0.069 | -2.2 ± 0.41 | -2.94 ± 0.08 | 0.0725 ± 0.99 | – | – | – | – | – | – | – | – | – | – |
